Test results reported in paper PMC11786100, “Chronic GIPR agonism results in pancreatic islet GIPR functional desensitisation” (Molecular Metabolism, 2025).

Assays:
SNAP-tagged mouse GIPR = biological target: T1, SNAP-tagged mouse GIPR (Mus musculus, UniProt Q0P543); test: Internalisation and receptor surface expression assays in AD-293 cells; assay type: cell-based; details: 1 μM, 1-hour treatment, BG-S-S-649/Mesna, n = 3–4
T1 construct: host or cells: AD-293
T1 sequence (Q0P543 19-460): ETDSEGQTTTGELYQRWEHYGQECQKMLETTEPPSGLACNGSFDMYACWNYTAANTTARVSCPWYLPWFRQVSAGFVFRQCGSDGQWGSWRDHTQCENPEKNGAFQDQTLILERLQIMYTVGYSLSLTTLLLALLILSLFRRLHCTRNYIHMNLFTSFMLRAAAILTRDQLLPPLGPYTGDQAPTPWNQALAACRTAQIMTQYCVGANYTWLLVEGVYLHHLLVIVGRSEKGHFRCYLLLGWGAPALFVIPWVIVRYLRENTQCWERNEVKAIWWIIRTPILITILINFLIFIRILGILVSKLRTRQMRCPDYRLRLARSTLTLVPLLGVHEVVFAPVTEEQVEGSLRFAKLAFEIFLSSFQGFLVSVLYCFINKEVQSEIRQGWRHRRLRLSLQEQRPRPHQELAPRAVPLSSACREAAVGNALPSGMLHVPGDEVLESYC

SNAP-tagged mouse GLP-1R = biological target: T2, SNAP-tagged mouse GLP-1R (Mus musculus, UniProt O35659); test: as above; assay type: cell-based; details: 10 nM
T2 construct: host or cells: AD-293
T2 sequence (O35659 22-463): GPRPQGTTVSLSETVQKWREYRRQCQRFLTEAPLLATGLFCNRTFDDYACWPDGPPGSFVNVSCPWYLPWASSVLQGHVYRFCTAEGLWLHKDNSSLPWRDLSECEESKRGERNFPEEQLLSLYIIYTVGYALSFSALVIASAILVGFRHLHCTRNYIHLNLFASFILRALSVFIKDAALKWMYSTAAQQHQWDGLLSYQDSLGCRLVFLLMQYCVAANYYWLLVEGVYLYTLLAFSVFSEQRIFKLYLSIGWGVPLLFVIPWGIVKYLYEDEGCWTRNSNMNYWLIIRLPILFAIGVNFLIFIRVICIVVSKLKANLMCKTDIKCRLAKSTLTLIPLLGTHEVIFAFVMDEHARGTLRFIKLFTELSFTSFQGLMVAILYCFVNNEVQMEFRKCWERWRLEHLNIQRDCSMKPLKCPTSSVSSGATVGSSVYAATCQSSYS
Experimental: AD-293 cells were transfected with desired plasmid DNA encoding a SNAP-tagged G-protein coupled receptor (GPCR) 24 h prior to assay. For 1 h internalisation assays, cells were labelled for 10 min with cleavable SNAP-tag probe BG-S-S-649 (New England BioLabs, US). Following 1 h treatment with specified peptide, cells were imaged at baseline and after addition of 2-mercaptoethane sulfonate (Mesna). For 4-hour GPCR surface expression assays, cells were treated with the specified peptide for 4 h, prior to 10-minute labelling with BG-S-S-649 and imaging. Full details are provided in the supplementary methods.
AD-293 cells were added to a 96-well plate and maintained in 200 μl complete DMEM. 150 ng of mouse or human SNAP-tagged plasmid GIPR DNA, or 100 ng of mouse or human SNAP-tagged plasmid GLP-1R DNA was added to each well alongside Lipofectamine 2000 (Thermo Fisher, UK) and left for 24 hours.
For 1 hour internalisation assays, cells were labelled with cleavable SNAP-tag probe BG-S-S-649 (New England BioLabs, US) in complete DMEM for 10 minutes prior to washing and 1 hour treatment with specified peptide, reconstituted in DMEM + 0.1% BSA. […] GPCR internalisation was quantified as the cell fluorescence following Mesna addition (representing internalised GPCR), corrected for the baseline cell fluorescence (representing total cellular GPCR). […]

Compound	receptor internalisation compared to vehicle (SNAP-tagged mouse GIPR)	receptor internalisation compared to vehicle (SNAP-tagged mouse GLP-1R; 1-hour treatment, n = 3–4)	receptor internalisation (surface expression) compared to vehicle (SNAP-tagged mouse GLP-1R; 4-hours treatment, n = 7–8)
CC[C@H](C)[C@H](NC(=O)[C@H](CO)NC(=O)[C@H](Cc1ccc(O)cc1)NC(=O)[C@H](CC(=O)O)NC(=O)[C@H](CO)NC(=O)[C@@H](NC(=O)[C@H](Cc1ccccc1)NC(=O)[C@@H](NC(=O)CNC(=O)[C@H](CCC(=O)O)NC(=O)C(C)(C)NC(=O)[C@@H](N)Cc1ccc(O)cc1)[C@@H](C)O)[C@@H](C)CC)C(=O)N[C@@H](C)C(=O)N[C@@H](CC(C)C)C(=O)N[C@@H](CC(=O)O)C(=O)N[C@@H](CCCCN)C(=O)N[C@H](C(=O)N[C@@H](Cc1c[nH]cn1)C(=O)N[C@@H](CCC(N)=O)C(=O)N[C@@H](CCC(N)=O)C(=O)N[C@@H](CC(=O)O)C(=O)N[C@@H](Cc1ccccc1)C(=O)N[C@H](C(=O)N[C@@H](CC(N)=O)C(=O)N[C@@H](Cc1c[nH]c2ccccc12)C(=O)N[C@@H](CC(C)C)C(=O)N[C@@H](CC(C)C)C(=O)N[C@@H](C)C(=O)N[C@@H](CCC(N)=O)C(=O)N[C@@H](CCCCN)C(=O)NCC(=O)N[C@@H](CCCCNC(=O)CC[C@H](NC(=O)CCCCCCCCCCCCCCCCCCC(=O)O)C(=O)O)C(=O)N[C@@H](CCCCN)C(=O)N[C@@H](CC(N)=O)C(=O)N[C@@H](CC(=O)O)C(=O)N[C@@H](Cc1c[nH]c2ccccc12)C(=O)N[C@@H](CCCCN)C(=O)N[C@@H](Cc1c[nH]cn1)C(=O)N[C@@H](CC(N)=O)C(=O)N[C@H](C(=O)N[C@H](C(=O)N[C@@H](CCC(N)=O)C(=O)O)[C@@H](C)O)[C@@H](C)CC)C(C)C)[C@@H](C)CC [GIP108]	did not increase mouse GIPR internalisation	–	–
GLP-1(7–36)·NH2	–	significantly increased both mouse and human GLP-1R internalisation	significantly increased both mouse and human GLP-1R internalisation
